Measured values as given in patent US20250326771A1, “PIPERAZINE DERIVATIVES USEFUL IN HIV THERAPY” (VIIV HEALTHCARE COMPANY, priority 2022, published 2025).
pIC50: −log10 of the molar value.

Tests used:
[1] = biological target: cIAP2-BIR3 (Homo sapiens (Human), UniProt Q13489); assay: BIR binding assay (FRET competition), cIAP2 BIR3; details: for cIAP2 BIR3 vs BIR2 separation window: fold separation (FS) for cIAP2
[2] = biological target: cIAP2-BIR2 (Homo sapiens (Human), UniProt Q13489); assay: BIR binding assay (FRET competition), cIAP2 BIR2
Sequence of cIAP2-BIR2 (Q13489 158-242): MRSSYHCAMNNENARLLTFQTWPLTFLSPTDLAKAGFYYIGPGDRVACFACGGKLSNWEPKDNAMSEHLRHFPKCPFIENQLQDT
Summary of the method: (§1)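 Each domain is run separately at its own level: 50 nM cIAP1-BIR3, 100 nM XIAP-BIR3, 325 nM for cIAP1-BIR2 or cIAP2-BIR2. Probe is a 200 nM fluorescent SMAC peptide, and the value is IC50 from FRET competition.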

[3] = biological target: cIAP1-BIR3 (Homo sapiens (Human), UniProt Q13490); assay: BIR binding assay (FRET competition), cIAP1 BIR3; details: for cIAP1 BIR3 vs BIR2 separation window: fold separation (FS) for cIAP1
Sequence of cIAP1-BIR3 (Q13490 253-363): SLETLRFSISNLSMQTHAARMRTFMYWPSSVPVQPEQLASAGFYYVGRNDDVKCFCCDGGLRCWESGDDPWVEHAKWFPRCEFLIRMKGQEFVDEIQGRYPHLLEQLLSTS
Summary of the method: as §1

[4] = biological target: XIAP-BIR3 (Homo sapiens (Human), UniProt P98170); assay: BIR binding assay (FRET competition), XIAP BIR3; details: for XIAP BIR3 vs BIR2 separation window: fold separation (FS) for XIAP
Sequence of XIAP-BIR3 (P98170 241-356): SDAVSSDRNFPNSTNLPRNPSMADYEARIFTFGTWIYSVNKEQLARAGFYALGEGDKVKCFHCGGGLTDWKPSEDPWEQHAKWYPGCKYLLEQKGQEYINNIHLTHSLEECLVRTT
Summary of the method: as §1

[5] = test system: Jurkat HIV-luciferase clones; assay: Jurkat latency reversal assay; assay type: cell-based; details: Homo sapiens, 48 h; Jurkat latency reversal assay potency; read-out: Jurkat pEC50 (converted)
Summary of the method: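 Compounds are titrated 3-fold over 14 points from 10 μM in duplicate at 0.5% DMSO. Clones C16, 115 and N6, grown with 500 nM EFV, are co-incubated for 48 h at 37° C. Virally driven luciferase is read by luminescence, and EC50 and maximal percent activation versus vehicle come from a four-parameter model.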

[6] = biological target: XIAP-BIR2 (Homo sapiens (Human), UniProt P98170); assay: BIR binding assay (FRET competition), XIAP BIR2; details: FRET competition binding; for IC50: read-out: XIAP BIR2 (pIC50) (converted)
Sequence of XIAP-BIR2 (P98170 124-240): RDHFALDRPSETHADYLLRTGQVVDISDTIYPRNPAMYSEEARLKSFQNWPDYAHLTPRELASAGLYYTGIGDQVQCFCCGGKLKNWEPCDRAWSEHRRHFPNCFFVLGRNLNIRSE
Summary of the method: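 Compounds in a 15-point, 3-fold series competed with an AlexaFluor647 SMAC peptide (AVPIAQKSE, 200 nM) for 200 nM His-tagged XIAP-BIR2 over 60 min in pH 7.4 HEPES/CHAPS/DTT buffer. Eu-W1024 (2 nM) was then added for 30 min. IC50 and pIC50 were derived from the 615 nm/665 nm emission ratio by variable-slope fit.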

[7] = biological target: cIAP1-BIR2 (Homo sapiens (Human), UniProt Q13490); assay: BIR binding assay (FRET competition), cIAP1 BIR2
Sequence of cIAP1-BIR2 (Q13490 173-257): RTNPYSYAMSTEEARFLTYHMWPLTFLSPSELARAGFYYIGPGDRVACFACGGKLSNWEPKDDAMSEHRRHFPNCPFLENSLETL
Summary of the method: as §1

Sequence of cIAP2-BIR3 (Q13489 238-349): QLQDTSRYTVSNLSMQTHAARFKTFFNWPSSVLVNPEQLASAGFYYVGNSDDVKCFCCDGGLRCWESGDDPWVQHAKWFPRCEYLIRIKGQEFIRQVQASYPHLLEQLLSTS

| SMILES | pIC50 [1] | cIAP2 BIR3 vs BIR2 separation window [1] | pIC50 [2] | pIC50 [3] | cIAP1 BIR3 vs BIR2 separation window [3] | pIC50 [4] | XIAP BIR3 vs BIR2 separation window [4] | EC50 [5] | IC50 [6] | pIC50 [7] | XIAP BIR2 (pIC50) [6] |
| --- | --- | --- | --- | --- | --- | --- | --- | --- | --- | --- | --- |
| C[C@@H]1CN(CC(=O)N2CC(C)(C)c3[nH]c(=O)c(Cc4ccc(F)cc4)cc32)[C@@H](CN2CCN(C(=O)COCCOCC(=O)N3CCN(C[C@H]4CN[C@H](C)CN4CC(=O)N4CC(C)(C)c5[nH]c(=O)c(Cc6ccc(F)cc6)cc54)[C@H](C)C3)C[C@H]2C)CN1 [Example 5, 1,1′-(2,2′-((3R,3′R,6R,6′R)-(((2R,2′R)-(2,2′-(ethane-1,2-diylbis(oxy))bis(acetyl))bis(2-methylpiperazine-4,1-diyl))bis(methylene))bis(3-methylpiperazine-6,1-diyl))bis(acetyl))bis(6-(4-fluorobenzyl)-3,3-dimethyl-1,2,3,4-tetrahydro-5H-pyrrolo[3,2-b]pyridin-5-one)] | 7.50 to 7.80 | ++ (1,000>FS>100) | 5.50 to 6.00 | 6.30 to 7.50 | ++ (1,000>FS>100) | 6.30 to 7.50 | ++++ (FS>10,000) | 63.1 to 316 nM | 10000 to 51300 nM | 5.00 to 5.50 |  |
| C[C@@H]1CN(CC(=O)N2CC(C)(C)c3[nH]c(=O)c(Cc4ccc(F)cc4)cc32)[C@@H](CN2CCN(C(=O)Cc3ccccc3CC(=O)N3CCN(C[C@H]4CN[C@H](C)CN4CC(=O)N4CC(C)(C)c5[nH]c(=O)c(Cc6ccc(F)cc6)cc54)[C@H](C)C3)C[C@H]2C)CN1 [Example 7, 1,1′-(2,2′-((3R,3′R,6R,6′R)-(((2R,2′R)-(2,2′-(1,2-phenylene)bis(acetyl))bis(2-methylpiperazine-4,1-diyl))bis(methylene))bis(3-methylpiperazine-6,1-diyl))bis(acetyl))bis(6-(4-fluorobenzyl)-3,3-dimethyl-1,2,3,4-tetrahydro-5H-pyrrolo[3,2-b]pyridin-5-one)] | 7.50 to 7.80 |  | 6.00 to 7.65 | 7.50 to 7.80 |  | 7.50 to 7.80 |  | 63.1 to 316 nM | 1000 to 3160 nM | 6.00 to 7.65 |  |
| C[C@@H]1CN(CC(=O)N2CC(C)(C)c3[nH]c(=O)c(Cc4ccc(F)cc4)cc32)[C@@H](CN2CCN(C(=O)COc3cccc(OCC(=O)N4CCN(C[C@H]5CN[C@H](C)CN5CC(=O)N5CC(C)(C)c6[nH]c(=O)c(Cc7ccc(F)cc7)cc65)[C@H](C)C4)c3)C[C@H]2C)CN1 [Example 11, 1,1′-(2,2′-((3R,3′R,6R,6′R)-(((2R,2′R)-(2,2′-(1,3-phenylenebis(oxy))bis(acetyl))bis(2-methylpiperazine-4,1-diyl))bis(methylene))bis(3-methylpiperazine-6,1-diyl))bis(acetyl))bis(6-(4-fluorobenzyl)-3,3-dimethyl-1,2,3,4-tetrahydro-5H-pyrrolo[3,2-b]pyridin-5-one)] | 7.50 to 7.80 | ++ (1,000>FS>100) | 5.50 to 6.00 | 7.50 to 7.80 | ++ (1,000>FS>100) | 6.30 to 7.50 | ++++ (FS>10,000) | 63.1 to 316 nM | 10000 to 51300 nM | 5.50 to 6.00 |  |
| C[C@@H]1CN(CC(=O)N2CC(C)(C)c3[nH]c(=O)c(Cc4ccc(F)cc4)cc32)[C@@H](CN2CCN(C(=O)CN(C)CC(=O)N3CCN(C[C@H]4CN[C@H](C)CN4CC(=O)N4CC(C)(C)c5[nH]c(=O)c(Cc6ccc(F)cc6)cc54)[C@H](C)C3)C[C@H]2C)CN1 [Example 15, 1,1′-(2,2′-((3R,3′R,6R,6′R)-(((2R,2′R)-(2,2′-(methylazanediyl)bis(acetyl))bis(2-methylpiperazine-4,1-diyl))bis(methylene))bis(3-methylpiperazine-6,1-diyl))bis(acetyl))bis(6-(4-fluorobenzyl)-3,3-dimethyl-1,2,3,4-tetrahydro-5H-pyrrolo[3,2-b]pyridin-5-one)] | 8.10 to 8.86 |  | 6.00 to 7.65 | 8.10 to 8.86 |  | 8.10 to 8.86 |  | 63.1 to 316 nM | 10000 to 51300 nM | 6.00 to 7.65 |  |
| C[C@@H]1CN(CC(=O)N2CC(C)(C)c3[nH]c(=O)c(Cc4ccc(F)cc4)cc32)[C@@H](CN2CCN(C(=O)c3cccnc3-c3ncccc3C(=O)N3CCN(C[C@H]4CN[C@H](C)CN4CC(=O)N4CC(C)(C)c5[nH]c(=O)c(Cc6ccc(F)cc6)cc54)[C@H](C)C3)C[C@H]2C)CN1 [Example 17, 1,1′-(2,2′-((3R,3′R,6R,6′R)-(((2R,2′R)-([2,2′-bipyridine]-3,3′-dicarbonyl)bis(2-methylpiperazine-4,1-diyl))bis(methylene))bis(3-methylpiperazine-6,1-diyl))bis(acetyl))bis(6-(4-fluorobenzyl)-3,3-dimethyl-1,2,3,4-tetrahydro-5H-pyrrolo[3,2-b]pyridin-5-one)] | 8.10 to 8.86 | ++ (1,000>FS>100) | 6.00 to 7.65 | 8.10 to 8.86 | ++ (1,000>FS>100) | 8.10 to 8.86 | ++++ (FS>10,000) | 316 to 3310 nM | 10000 to 51300 nM | 6.00 to 7.65 |  |
| C[C@@H]1CN(CC(=O)N2CC(C)(C)c3[nH]c(=O)c(Cc4ccc(F)cc4)cc32)[C@@H](CN2CCN(C(=O)c3ccc4cc(C(=O)N5CCN(C[C@H]6CN[C@H](C)CN6CC(=O)N6CC(C)(C)c7[nH]c(=O)c(Cc8ccc(F)cc8)cc76)[C@H](C)C5)ccc4c3)C[C@H]2C)CN1 [Example 18, 1,1′-(2,2′-((3R,3′R,6R,6′R)-(((2R,2′R)-(naphthalene-2,6-dicarbonyl)bis(2-methylpiperazine-4,1-diyl))bis(methylene))bis(3-methylpiperazine-6,1-diyl))bis(acetyl))bis(6-(4-fluorobenzyl)-3,3-dimethyl-1,2,3,4-tetrahydro-5H-pyrrolo[3,2-b]pyridin-5-one)] | 8.10 to 8.86 | +++ (10,000>FS>1,000) | 5.50 to 6.00 | 8.10 to 8.86 | +++ (10,000>FS>1,000) | 8.10 to 8.86 | ++++ (FS>10,000) | 12.6 to 63.1 nM | 10000 to 51300 nM | 5.50 to 6.00 |  |
| C[C@@H]1CN(CC(=O)N2CC(C)(C)c3[nH]c(=O)c(Cc4ccc(F)cc4)cc32)[C@@H](CN2CCN(C(=O)c3ccc(C(=O)N4CCN(C[C@H]5CN[C@H](C)CN5CC(=O)N5CC(C)(C)c6[nH]c(=O)c(Cc7ccc(F)cc7)cc65)[C@H](C)C4)cc3)C[C@H]2C)CN1 [Example 19, 1,1′-(2,2′-((3R,3′R,6R,6′R)-(((2R,2′R)-terephthaloylbis(2-methylpiperazine-4,1-diyl))bis(methylene))bis(3-methylpiperazine-6,1-diyl))bis(acetyl))bis(6-(4-fluorobenzyl)-3,3-dimethyl-1,2,3,4-tetrahydro-5H-pyrrolo[3,2-b]pyridin-5-one)] | 8.10 to 8.86 | +++ (10,000>FS>1,000) | 6.00 to 7.65 | 8.10 to 8.86 | +++ (10,000>FS>1,000) | 8.10 to 8.86 | ++++ (FS>10,000) | 63.1 to 316 nM |  | 6.00 to 7.65 | + (4.29<pIC50<=5.00) |
| C[C@@H]1CN(CC(=O)N2CC(C)(C)c3[nH]c(=O)c(Cc4ccc(F)cc4)cc32)[C@@H](CN2CCN(C(=O)c3ccnc(-c4cc(C(=O)N5CCN(C[C@H]6CN[C@H](C)CN6CC(=O)N6CC(C)(C)c7[nH]c(=O)c(Cc8ccc(F)cc8)cc76)[C@H](C)C5)ccn4)c3)C[C@H]2C)CN1 [Example 23, 1,1′-(2,2′-((3R,3′R,6R,6′R)-(((2R,2′R)-([2,2′-bipyridine]-4,4′-dicarbonyl)bis(2-methylpiperazine-4,1-diyl))bis(methylene))bis(3-methylpiperazine-6,1-diyl))bis(acetyl))bis(6-(4-fluorobenzyl)-3,3-dimethyl-1,2,3,4-tetrahydro-5H-pyrrolo[3,2-b]pyridin-5-one)] | 8.10 to 8.86 |  | 5.50 to 6.00 | 8.10 to 8.86 |  | 8.10 to 8.86 |  | 63.1 to 316 nM | 10000 to 51300 nM | 5.50 to 6.00 |  |
| C[C@@H]1CN(CC(=O)N2CC(C)(C)c3[nH]c(=O)c(Cc4ccc(F)cc4)cc32)[C@@H](CN2CCN(Cc3c(F)c(F)c(CN4CCN(C[C@H]5CN[C@H](C)CN5CC(=O)N5CC(C)(C)c6[nH]c(=O)c(Cc7ccc(F)cc7)cc65)[C@H](C)C4)c(F)c3F)C[C@H]2C)CN1 [Example 28, 1,1′-(2,2′-((3R,3′R,6R,6′R)-(((2R,2′R)-((perfluoro-1,4-phenylene)bis(methylene))bis(2-methylpiperazine-4,1-diyl))bis(methylene))bis(3-methylpiperazine-6,1-diyl))bis(acetyl))bis(6-(4-fluorobenzyl)-3,3-dimethyl-1,2,3,4-tetrahydro-5H-pyrrolo [3,2-b]pyridin-5-one)] | 7.50 to 7.80 | +++ (10,000>FS>1,000) | 5.00 to 5.50 | 7.50 to 7.80 | +++ (10,000>FS>1,000) | 6.30 to 7.50 | +++ (10,000>FS>1,000) | 316 to 3310 nM | 10000 to 51300 nM | 5.50 to 6.00 |  |
